Numbered stars: 1 amine (or outer) side, 2 acyl side, 3 side chain; on linkers, the order of the positions; unused ones are H or OH. Square brackets hold non-standard residues; d marks the D form. Side chains are listed from the residue outwards. Peptide text beside a SMILES is read from it. * marks the point of attachment. C18 diacid = O=C(O)CCCCCCCCCCCCCCCCC(=O)*; γGlu = O=C(O)[C@H](CCC(=O)[*:2])N[*:1]; Desaminohistidyl = O=C(CCc1c[nH]cn1)*; Ac4c = NC1(C(=O)O)CCC1; AEEA = NCCOCCOCC(=O)O; Aib = CC(C)(N)C(=O)O
Tests used:
Mouse GCGR = biological target: T1, Mouse GCGR (Mus musculus, UniProt Q61606); experiment: Receptor potency, CRE-luciferase functional assay in BHK cells; format: cell-based; conditions: Mouse receptors, whole BHK cells, 3 h 37°C, value (95% CI)
T1 construct: a plasmid encoding either the glucagon receptor or the GLP-1 receptor from the relevant species; expressed in transfected cells
Procedure: (§1) The binding assay was performed on cell membranes in the presence of 1% (v/v) species-specific heparin-treated pooled plasma (Bioreclamation IVT, Westbury, NY) diluted in assay buffer (50 mM HEPES supplemented with 5 mM EGTA, 5 mM MgCl2, and 0.005% (v/v) Tween 20, pH7.4). […] Cells stably expressing an individual receptor of interest were grown at 5% CO2, 37°C in DMEM (supplemented with 10% FCS, 0.5 mg/ml G418 and 0.3 mg/ml hygromycin). Membrane preparations were made from cells harvested at approximately 80% confluence, washed and homogenized in 20 mM HEPES with 0.1 mM EDTA, pH 7.4. Protein concentration was determined, and the membranes were stored at -80°C until use. The membrane binding assay was performed in a 96-well OptiPlate (PerkinElmer) in a total volume of 200 μl. Test compounds were dissolved in 80% DMSO and further diluted in assay buffer. 50 μl of diluted plasma was added to the assay plate wells followed by addition of test compounds (25 μl), cell membranes (50 μl, 0.06 mg/ml), SPA beads (20 mg/ml in assay buffer) and radioligand (60,000 cpm/well, corresponding to 0.06 nM; 2200 Ci/mmol. Each assay plate was incubated for 2 h at 30°C, centrifuged at 1500 rpm for 10 minutes and counted in a TopCount NXT instrument (PerkinElmer).
(§2) Functional assays were performed on whole cells in the absence or presence of 100% species-specific heparin-treated pooled plasma (Bioreclamation IVT). […] The cells were cultured with DMEM (supplemented with GlutaMAX, 10% FBS, 0.5 mg/ml G418 and 0.3 mg/ml hygromycin) at 5% CO2 and 37°C. At approximately 80–90% confluence, cells were washed with PBS and harvested with Versene (Life Technologies, Carlsbad, CA). The cells were counted and plated into 96-well microtiter plates coated with poly-D-Lys (Corning BioCoat) with 5,000 cells/well and thereafter incubated overnight in growth media. The next day the media was changed to assay buffer (DMEM without phenol red, supplemented with GlutaMAX, 10 mM HEPES, 1% ovalbumin and 0.1% Pluronic F-68) or to 100% plasma. In the absence of plasma, compounds were diluted in assay buffer. In assays tested with plasma, compounds were diluted in pure plasma. Buffer was removed from the plates and 50 μl of test compound dilutions was added to the plates followed by 50 μl of plasma or the same buffer used for compound dilution. The assay plates were incubated for 3 h in a 5% CO2 incubator at 37°C. The plates were then transferred to room temperature for 15 min and 100 μl Steadylite Plus reagent (PerkinElmer) was added to each well. The plates were shaken for 30 min at room temperature while protected from light after which luminescence was measured.
(§3) For the receptor binding assays, logIC50 values were calculated using non-linear regression analysis. The error estimation was reported as the 95% confidence interval. […] The calculations were performed in GraphPad Prism 6.4 (GraphPad, San Diego, CA) and error estimation was expressed as the 95% confidence interval. […] Averages, error estimation, ratios and plasma shifts were all calculated on logIC50 or logEC50 values and transformed to the anti-log values for reporting purposes.

Mouse GLP-1R [1] = biological target: T2, Mouse GLP-1R (Mus musculus, UniProt O35659); experiment: as above; format: cell-based; conditions: Mouse receptors, whole BHK cells, 3 h 37°C, value (95% CI)
T2 construct: a plasmid encoding either the glucagon receptor or the GLP-1 receptor from the relevant species; expressed in transfected cells
T2 sequence (O35659 22-463): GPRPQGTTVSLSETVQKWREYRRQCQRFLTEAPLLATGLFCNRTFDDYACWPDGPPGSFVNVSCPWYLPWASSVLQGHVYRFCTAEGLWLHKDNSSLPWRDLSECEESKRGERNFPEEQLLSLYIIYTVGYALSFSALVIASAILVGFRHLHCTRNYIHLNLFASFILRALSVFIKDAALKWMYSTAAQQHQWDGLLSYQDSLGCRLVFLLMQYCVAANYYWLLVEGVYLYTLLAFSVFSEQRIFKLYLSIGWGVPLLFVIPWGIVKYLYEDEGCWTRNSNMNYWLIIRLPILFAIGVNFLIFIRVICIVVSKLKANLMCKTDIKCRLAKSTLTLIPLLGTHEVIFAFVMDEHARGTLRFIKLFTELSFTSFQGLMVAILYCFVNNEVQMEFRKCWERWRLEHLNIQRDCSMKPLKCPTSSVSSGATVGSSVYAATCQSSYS
Procedure: as §1, §2, §3

Human GCGR = biological target: T3, Human GCGR (Homo sapiens, UniProt P47871); experiment: Receptor binding, SPA competitive binding assay; conditions: SPA competitive binding on BHK cell membranes, [125I]-glucagon tracer, 1% species specific plasma, 2 h 30°C; value (95% CI)
T3 construct: a plasmid encoding either the glucagon receptor or the GLP-1 receptor from the relevant species; expressed in transfected cells
Procedure: as §1, §3

Rat GCGR = biological target: T4, Rat GCGR (Rattus norvegicus, UniProt P30082); experiment: Receptor binding, SPA competitive binding assay; conditions: SPA competitive binding on BHK cell membranes, [125I]-glucagon tracer, 1% species specific plasma, 2 h 30°C; value (95% CI)
T4 construct: a plasmid encoding either the glucagon receptor or the GLP-1 receptor from the relevant species; expressed in transfected cells
Procedure: as §1, §3

Mouse GLP-1R [2] = biological target: T2, Mouse GLP-1R; experiment: Receptor binding, SPA competitive binding assay; conditions: SPA competitive binding on BHK cell membranes, [125I]-GLP-1(7–36)-NH2 tracer, 1% species specific plasma, 2 h 30°C; value (95% CI)
Procedure: as §1, §3

in vivo = conditions: rat, iv
Procedure: Compound exposure was measured by Luminescence Oxygen Channeling Immunoassay (LOCI). […] The three reactants were combined with the analyte and formed a two-sited immuno-complex. Illumination of the complex released singlet oxygen […] from the donor beads. They were channeled into the acceptor beads and triggered a chemiluminescence response which was measured in an EnVision plate reader (PerkinElmer). The amount of light was proportional to the concentration of the analyte. As calibrators, a dilution line of the relevant analyte in rat/mouse plasma was included.
At t=0, 5 min, 10 min, 30 min, 2 h, 4 h, 8 h, 12 h, 24 h, 32 h, 48 h, 56 h, and 72 h post dosing, plasma was sampled from the sublingual plexus for analysis of plasma exposure measured by LOCI.
Plasma concentration-time profiles were analysed using non-compartmental analysis (NCA) using Phoenix WinNonlin Professional 6.3 (Pharsight, Mountain View, CA, US). Calculations were performed using full concentration-time profile values or sparse sampling concentration-time values as appropriate.

[3] = GCGR EC50, pM (95% CI) 100% plasma, 100% species-specific plasma
[4] = GLP-1R EC50, pM (95% CI) 100% plasma, 100% species-specific plasma
[5] = GCGR EC50, pM (95% CI) 0% plasma, 0% plasma

T4 sequence (P30082 27-485): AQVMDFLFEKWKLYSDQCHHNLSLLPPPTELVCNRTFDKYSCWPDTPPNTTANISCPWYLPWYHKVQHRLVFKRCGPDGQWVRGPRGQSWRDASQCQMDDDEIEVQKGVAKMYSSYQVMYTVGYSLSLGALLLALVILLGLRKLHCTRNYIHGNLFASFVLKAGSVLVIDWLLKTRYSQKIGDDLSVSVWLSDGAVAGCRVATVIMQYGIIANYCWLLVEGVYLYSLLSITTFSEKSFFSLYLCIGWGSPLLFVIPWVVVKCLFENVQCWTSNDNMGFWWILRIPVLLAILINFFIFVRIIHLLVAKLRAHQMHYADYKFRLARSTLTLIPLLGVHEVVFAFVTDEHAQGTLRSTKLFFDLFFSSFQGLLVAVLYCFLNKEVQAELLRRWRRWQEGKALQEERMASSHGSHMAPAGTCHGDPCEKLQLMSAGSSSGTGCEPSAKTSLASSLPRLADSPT
T3 sequence (P47871 26-477): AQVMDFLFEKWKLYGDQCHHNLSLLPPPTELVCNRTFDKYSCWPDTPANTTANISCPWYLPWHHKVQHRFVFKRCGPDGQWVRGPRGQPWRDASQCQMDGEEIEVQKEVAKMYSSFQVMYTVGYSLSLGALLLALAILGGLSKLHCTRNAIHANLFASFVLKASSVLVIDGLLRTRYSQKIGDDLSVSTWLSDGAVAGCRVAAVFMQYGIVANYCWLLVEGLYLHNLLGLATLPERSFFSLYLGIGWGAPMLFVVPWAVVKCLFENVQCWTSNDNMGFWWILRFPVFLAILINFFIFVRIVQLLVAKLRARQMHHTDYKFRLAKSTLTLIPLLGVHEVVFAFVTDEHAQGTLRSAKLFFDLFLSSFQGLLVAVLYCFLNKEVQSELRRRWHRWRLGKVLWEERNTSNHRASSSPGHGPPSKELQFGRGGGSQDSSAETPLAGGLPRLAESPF
T1 sequence (Q61606 27-485): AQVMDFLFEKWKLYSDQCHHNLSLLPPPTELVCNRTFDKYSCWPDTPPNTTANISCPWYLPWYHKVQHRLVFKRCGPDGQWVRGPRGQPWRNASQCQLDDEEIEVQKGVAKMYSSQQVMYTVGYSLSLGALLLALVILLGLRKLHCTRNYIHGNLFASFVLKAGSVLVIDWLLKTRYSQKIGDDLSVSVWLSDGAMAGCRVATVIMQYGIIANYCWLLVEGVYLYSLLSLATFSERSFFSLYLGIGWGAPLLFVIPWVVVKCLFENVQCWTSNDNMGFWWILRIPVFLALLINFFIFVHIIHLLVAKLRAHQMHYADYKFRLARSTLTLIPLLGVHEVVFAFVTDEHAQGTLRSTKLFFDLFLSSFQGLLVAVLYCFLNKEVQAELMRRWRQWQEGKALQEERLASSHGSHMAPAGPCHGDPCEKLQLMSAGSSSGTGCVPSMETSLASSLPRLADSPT

EC50 (Mouse GCGR; [3])	EC50 (Mouse GLP-1R [1]; [4])	EC50 (Mouse GCGR; [5])	IC50 (Human GCGR)	IC50 (Rat GCGR)	IC50 (Mouse GLP-1R [2])	half-life (in vivo)	Compound	EC50 (Mouse GLP-1R [1]; GLP-1R EC50, pM (95% CI) 0% plasma, 0% plasma)
442000 pM	24.6 pM	–	–	–	–	–	CC(C)C[C@H](NC(=O)[C@H](CC(C)C)NC(=O)[C@H](Cc1c[nH]c2ccccc12)NC(=O)[C@H](CCC(N)=O)NC(=O)[C@@H](NC(=O)[C@H](Cc1ccccc1)NC(=O)[C@H](CCC(=O)O)NC(=O)[C@H](CCCNC(=N)N)NC(=O)[C@H](C)NC(=O)[C@H](C)NC(=O)[C@H](CCCNC(=N)N)NC(=O)[C@H](CO)NC(=O)[C@H](CC(=O)O)NC(=O)[C@H](CC(C)C)NC(=O)[C@H](Cc1ccc(O)cc1)NC(=O)[C@H](CCCCN)NC(=O)[C@H](CO)NC(=O)[C@H](CC(C)C)NC(=O)[C@H](CC(=O)O)NC(=O)[C@H](CO)NC(=O)[C@@H](NC(=O)[C@H](Cc1ccccc1)NC(=O)[C@@H](NC(=O)CNC(=O)[C@H](CCC(=O)O)NC(=O)C(C)(C)NC(=O)[C@@H](N)Cc1c[nH]cn1)[C@@H](C)O)[C@@H](C)O)C(C)C)C(=O)N[C@@H](CC(N)=O)C(=O)N[C@@H](CCCCNC(=O)CC[C@H](NC(=O)CC[C@H](NC(=O)COCCOCCNC(=O)COCCOCCNC(=O)CC[C@H](NC(=O)CCCCCCCCCCCCCCCCC(=O)O)C(=O)O)C(=O)O)C(=O)O)C(N)=O [GLP-1 reference] (H-H[Aib]EGTFTSDLSKYLDSRAAREFVQWLLNK([γGlu-γGlu-AEEA-AEEA-γGlu-C18 diacid])-NH2)	–
103 pM	12.6 pM	1.96 pM	2.54 nM	0.3 nM	0.11 nM	8 h	CC(C)C[C@H](NC(=O)[C@H](Cc1ccc(O)cc1)NC(=O)[C@H](CCCCN)NC(=O)[C@H](CO)NC(=O)[C@H](CC(C)C)NC(=O)[C@H](CC(=O)O)NC(=O)[C@H](CO)NC(=O)[C@@H](NC(=O)[C@H](Cc1ccccc1)NC(=O)[C@@H](NC(=O)CNC(=O)[C@H](CCC(N)=O)NC(=O)C(C)(C)NC(=O)[C@@H](N)Cc1c[nH]cn1)[C@@H](C)O)[C@@H](C)O)C(=O)N[C@@H](CCC(=O)O)C(=O)N[C@@H](CO)C(=O)N[C@@H](CCCCN)C(=O)N[C@@H](CCCNC(=N)N)C(=O)N[C@@H](C)C(=O)N[C@@H](CCCNC(=N)N)C(=O)N[C@@H](CCC(=O)O)C(=O)N[C@@H](Cc1ccccc1)C(=O)N[C@H](C(=O)N[C@@H](CCC(N)=O)C(=O)N[C@@H](Cc1c[nH]c2ccccc12)C(=O)N[C@@H](CC(C)C)C(=O)N[C@@H](CC(C)C)C(=O)N[C@@H](CCCCNC(=O)CC[C@H](NC(=O)CC[C@H](NC(=O)[C@H](CO)NC(=O)[C@H](CCC(=O)O)NC(=O)[C@H](CO)NC(=O)CC[C@H](NC(=O)CC[C@H](NC(=O)CCCCCCCCCCCCCCCCC(=O)O)C(=O)O)C(=O)O)C(=O)O)C(=O)O)C(=O)N[C@H](C(N)=O)[C@@H](C)O)C(C)C [NN1177] (H-H[Aib]QGTFTSDLSKYLESKRAREFVQWLLK([γGlu-γGlu-Ser-Glu-Ser-γGlu-γGlu-C18 diacid])T-NH2)	–
2540 pM	95.3 pM	29.7 pM	7.54 nM	6.29 nM	0.37 nM	11 h	CC[C@H](C)[C@H](NC(=O)[C@H](Cc1ccccc1)NC(=O)[C@H](CCC(=O)O)NC(=O)[C@H](CCCNC(=N)N)NC(=O)[C@H](C)NC(=O)[C@H](C)NC(=O)[C@H](CCC(N)=O)NC(=O)[C@H](CCC(=O)O)NC(=O)[C@H](CCC(=O)O)NC(=O)[C@H](CC(C)C)NC(=O)[C@H](Cc1ccc(O)cc1)NC(=O)[C@H](CCCCN)NC(=O)[C@H](CO)NC(=O)[C@@H](NC(=O)[C@H](CC(=O)O)NC(=O)[C@H](CO)NC(=O)[C@@H](NC(=O)[C@H](Cc1ccccc1)NC(=O)[C@@H](NC(=O)CNC(=O)[C@H](Cc1c[nH]cn1)NC(=O)C(C)(C)NC(=O)CCc1c[nH]cn1)[C@@H](C)O)[C@@H](C)O)C(C)C)C(=O)N[C@@H](C)C(=O)N[C@@H](Cc1c[nH]c2ccccc12)C(=O)N[C@@H](CC(C)C)C(=O)N[C@@H](CC(C)C)C(=O)N[C@@H](CCCCNC(=O)COCCOCCNC(=O)COCCOCCNC(=O)CC[C@H](NC(=O)CC[C@H](NC(=O)CCCCCCCCCCCCCCCCC(=O)O)C(=O)O)C(=O)O)C(=O)N[C@H](C(N)=O)[C@@H](C)O [NN1359] (Desaminohistidyl-[Aib]HGTFTSDVSKYLEEQAAREFIAWLLK([AEEA-AEEA-γGlu-γGlu-C18 diacid])T-NH2)	–

Compound	EC50 (Mouse GCGR; [3])	EC50 (Mouse GLP-1R [1]; [4])	EC50 (Mouse GCGR; [5])	IC50 (Human GCGR)	IC50 (Rat GCGR)	IC50 (Mouse GLP-1R [2])	half-life (in vivo)	EC50 (Mouse GLP-1R [1]; GLP-1R EC50, pM (95% CI) 0% plasma, 0% plasma)
CC(C)C[C@H](NC(=O)[C@H](CC(=O)O)NC(=O)[C@H](CC(C)C)NC(=O)[C@H](Cc1ccc(O)cc1)NC(=O)[C@H](CCCCN)NC(=O)[C@H](CO)NC(=O)[C@H](CC(C)C)NC(=O)[C@H](CC(=O)O)NC(=O)[C@H](CO)NC(=O)[C@@H](NC(=O)[C@H](Cc1ccccc1)NC(=O)[C@@H](NC(=O)CNC(=O)[C@H](CCC(N)=O)NC(=O)C1(NC(=O)[C@@H](N)Cc2c[nH]cn2)CCC1)[C@@H](C)O)[C@@H](C)O)C(=O)N[C@@H](CCCNC(=N)N)C(=O)N[C@@H](CCCNC(=N)N)C(=O)N[C@@H](C)C(=O)N[C@@H](CCCNC(=N)N)C(=O)N[C@@H](CC(=O)O)C(=O)N[C@@H](Cc1ccccc1)C(=O)N[C@H](C(=O)N[C@@H](CCC(N)=O)C(=O)N[C@@H](Cc1c[nH]c2ccccc12)C(=O)N[C@@H](CC(C)C)C(=O)N[C@@H](CC(C)C)C(=O)N[C@@H](CCCCNC(=O)CC[C@H](NC(=O)CC[C@H](NC(=O)COCCOCCNC(=O)COCCOCCNC(=O)CC[C@H](NC(=O)CC[C@H](NC(=O)CCCCCCCCCCCCCCCCC(=O)O)C(=O)O)C(=O)O)C(=O)O)C(=O)O)C(=O)N[C@H](C(N)=O)[C@@H](C)O)C(C)C [NN1151] (H-H[Ac4c]QGTFTSDLSKYLDLRRARDFVQWLLK([γGlu-γGlu-AEEA-AEEA-γGlu-γGlu-C18 diacid])T-NH2)	60.3 pM	161 pM	–	0.81 nM	0.27 nM	1.87 nM	4 h	1.13 pM

Source: PMC8896685 (PLoS ONE, 2022)
